# Data reported in US20050069496A1, “Methods of screening, determining, developing and utilizing negative cross resistance toxins” (priority 2001, published 2005).
# Read-outs that look alike come from different tables or passages of the source. Marks after values point to notes of the source that are not given here.
# Key:
# [1] = system: Mycosphaeralla graminicola Wild type and Tri R1 resistant strains; assay: Cross-resistance comparison of resistant and wild type fungal lines; type: cell-based; details: for Resistance Ratio: Tri R1 resistant versus wild type; for Resistance Type: compared to resistance to Triadimenol, not tested statistically; for Possible Resistance Type: after Bonferroni correction
# Text: In one embodiment, large-scale screens are utilized to determine NCR toxins that can be used against fungicide resistance. For such a screen, there will be one of three outcomes: (1) positive cross-resistance, (2) neutral (no cross-resistance), and (3) negative cross-resistance. Table 3 illustrates the EC50 for each toxin as given on two lines of Mycosphaeralla graminicola. The EC50 is the effective concentration that will kill fifty percent of the organisms in a test population. One line is Triadimenol susceptible and the other line is resistant to this compound. An estimate is made of the nature of resistance of these two lines to nine other toxins. The resistance is defined as (i) positive cross-resistance, (ii) negative cross-resistance or (iii) no cross-resistance (neutral) as compared to the resistance to Triadimenol (1RS,2RS;1RS,2RS)-1-(4chlorophenoxy)-3,3-dimethyl-1-(1H-1,2,4-trizol-1-yl) butan-1-o. Such a comparison is useful in a large-scale screen for NCR toxins for fungicides.
# Three of the compounds listed in Table 3 are indicated as potential NCR toxins (Triflumizole, Ferarimol, and Nuarimol). In one embodiment, screening resources are used efficiently, i.e. the potential for identifying false-positives is minimized, by focusing on investigating potential NCR toxins through a test with a correction factor, such as a Bonferroni correction. Alternatively, other correction factors can be used including, but not limited to, Duncan's method. […] Where differential toxicity occurs between the two fungal lines on a given toxin, a difference in toxicity between the two lines is determined. If the fungal line that was resistant to the first toxin (e.g. Triadimenol) is now more susceptible to the new toxin (e.g. Triflumizole, Ferarimol, or Nuarimol) potential NCR toxin pairs are identified.
# Differences between toxins, in terms of NCR activity, may be indicated where such differences may not truly exist (type I error in statistical hypothesis testing). In the present example, the confidence interval is extended using, for example, Bonferroni correction, which is needed to control for false positives in detection of NCR toxins in large-screen tests. A NCR factor is declared if the second toxin requires a lower dosage to kill the resistant line as compared to the wild type fungal line or lines. The consequences of a failure to use Bonferroni correction normally results in higher numbers of false positives in a large-scale screen. Toxins that are selected on the basis of no correction may still be considered as putative NCR toxins, but deserving less consideration than those identified using the correction method. A Bonferroni correction is thus performed on the three putative NCR toxins (and the reference toxin) to determine if one of the toxins is a NCR factor.
# Table 4 illustrates the Bonferroni corrected data (from Table 3 above) of the reference compound (Triadimenol) and the three putative NCR toxins for fungicide resistance. The correction was made based on four compounds tested, each with minimally five doses to calculate the effective concentration fifty (EC50).
# [2] = system: Canton-S (DDT susceptible flies) and para^tsl (DDT resistant flies); assay: Initial screen of DDT and 8 pyrethroids, Canton-S versus para^tsl flies; type: in vivo, Drosophila melanogaster; details: for Fly Line Preferentially Killed by the Toxin: across the doses
# Method: A test was conducted utilizing an initial screen of DDT and 8 pyrethroids against Canton-S (DDT susceptible flies) and para^tsl (DDT resistant flies). […]
# Canton-S flies = assay: Fly mortality bioassay, Canton-S; type: in vivo, Drosophila melanogaster; details: for Resistance Ratio: Canton-S, LD50 over LD50 of para^tsl males
# Method: (§1) A test was conducted utilizing an initial screen of DDT and 8 pyrethroids against Canton-S (DDT susceptible flies) and para^tsl (DDT resistant flies).
# (§2) As a further step in the test, heterozygotes were tested with either deltamethrin or DDT.
# para^tsl flies = assay: Fly mortality bioassay, para^tsl; type: in vivo, Drosophila melanogaster; details: for Resistance Ratio: Para^tsl
# Method: as §1, §2
# heterozygous fly lines [3] = assay: Fly mortality bioassay, heterozygotes; type: in vivo, Drosophila melanogaster
# Method: as §2
# An additional test was conducted to determine if DDT and deltamethrin applied at the same time killed the heterozygotes.
# FIG. 17 graphically illustrates the application of deltamethrin by itself 220, the application of DDT by itself 222, and the application of both deltamethrin and DDT at the same time 224 to para^tsl flies, Canton-S flies, and heterozygotes.
# heterozygous fly lines [4] = details: stated as known; cited from earlier work
# TF-FVIIa complex = TF-FVIIa complex (Homo sapiens, UniProt P08709); details: Inhibitor concentration ± standard error; read-out: FX activation (IC50); cited from earlier work
# [5] = system: Drosophila sodium channel, para, resistance mutation line; details: mutation not observed in nature; cited from earlier work
# Sequence of TF-FVIIa complex (P08709 213-466 limits assumed): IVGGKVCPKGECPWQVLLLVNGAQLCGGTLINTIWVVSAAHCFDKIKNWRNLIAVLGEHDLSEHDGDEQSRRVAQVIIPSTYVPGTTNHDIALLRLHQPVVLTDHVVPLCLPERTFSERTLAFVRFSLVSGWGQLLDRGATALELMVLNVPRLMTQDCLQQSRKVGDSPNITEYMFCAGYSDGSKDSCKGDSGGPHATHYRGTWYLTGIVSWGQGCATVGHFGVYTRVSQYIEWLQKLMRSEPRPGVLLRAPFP
# Sequence of TF-FVIIa complex (P08709 61-212 limits assumed): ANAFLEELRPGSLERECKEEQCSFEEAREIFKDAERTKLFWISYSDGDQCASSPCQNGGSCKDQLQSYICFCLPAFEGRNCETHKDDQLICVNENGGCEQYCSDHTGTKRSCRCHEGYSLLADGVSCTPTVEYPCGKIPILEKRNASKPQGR
# Sequence of TF-FVIIa complex (P13726 33-295 partner): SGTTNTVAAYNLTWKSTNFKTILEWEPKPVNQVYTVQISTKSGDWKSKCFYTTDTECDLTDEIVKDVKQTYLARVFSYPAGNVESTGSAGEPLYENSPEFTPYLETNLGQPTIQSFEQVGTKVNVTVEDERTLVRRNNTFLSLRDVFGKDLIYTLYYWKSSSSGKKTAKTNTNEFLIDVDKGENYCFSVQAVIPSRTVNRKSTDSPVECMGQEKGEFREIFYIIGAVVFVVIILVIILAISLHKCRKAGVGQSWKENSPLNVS
molecule,measurement,setting,value
O=c1c2cc(F)ccc2nc(-n2cncn2)n1-c1ccc(Cl)cc1Cl [Fluquinconazole],Resistance Ratio,[1],0.4
same,Resistance Type,[1],Negative
CC(C)[C@H](C(=O)O[C@H](C#N)c1cccc(Oc2ccccc2)c1)c1ccc(Cl)cc1 [Asana],Fly Line Preferentially Killed by the Toxin,[2],Neither
CC(C)(C)C(O)(CCc1ccc(Cl)cc1)Cn1cncn1 (stereo not shown) [Tebuconazole],Resistance Ratio,[1],3.3
same,Resistance Type,[1],Positive
C=CCOC(Cn1ccnc1)c1ccc(Cl)cc1Cl (stereo not shown) [Imazalil],Resistance Ratio,[1],5.0
same,Resistance Type,[1],Positive
CC1(C)[C@H](C(=O)O[C@H](C#N)c2cccc(Oc3ccccc3)c2)[C@@H]1C=C(Br)Br [Deltamethrin],Fly Line Preferentially Killed by the Toxin,[2],Para^tsl
same,Fly Line Preferentially Killed by the Toxin,[2]; listed as deltamethrin,more toxic to para^tsl flies than to Canton-S flies
same,Preferential killing when tested by individual doses,[2]; individual doses,preferentially killed para^tsl flies
same,Resistance Ratio,Canton-S flies; Female,24.7
same,Resistance Ratio,Canton-S flies; Male,9.9
same,Percent Dead Cantons-S,Canton-S flies; Dose 0.2,31.7%
same,Percent Dead Cantons-S,Canton-S flies; Dose 0.5,56.7%
same,Percent Dead Cantons-S,Canton-S flies; Dose 1,26.7%
same,Percent Dead Cantons-S,Canton-S flies; Dose 2,93.3%
same,Percent Dead Cantons-S,Canton-S flies; Dose 5,100%
same,Percent Dead Cantons-S,Canton-S flies; Dose 8,96.7%
same,Percent Dead Cantons-S,Canton-S flies; Dose 10,98.3%
same,Percent Dead Cantons-S,Canton-S flies; Dose 15,100%
same,Percent Dead Cantons-S,Canton-S flies; Dose 20,98.3%
same,Percent Dead Para^tsl,para^tsl flies; Dose 0.2,98.3%
same,Percent Dead Para^tsl,para^tsl flies; Dose 0.5,100%
same,Percent Dead Para^tsl,para^tsl flies; Dose 1,85.0%
same,Percent Dead Para^tsl,para^tsl flies; Dose 2,100%
same,Percent Dead Para^tsl,para^tsl flies; Dose 5,100%
same,Percent Dead Para^tsl,para^tsl flies; Dose 8,100%
same,Percent Dead Para^tsl,para^tsl flies; Dose 10,98.3%
same,Percent Dead Para^tsl,para^tsl flies; Dose 15,100%
same,Percent Dead Para^tsl,para^tsl flies; Dose 20,100%
same,Resistance Ratio,"para^tsl flies; Female, LD50 over LD50 of para^tsl males",1.4
same,Resistance Ratio,"para^tsl flies; Male, denominator line",1.0*
same,Resistance Ratio,"heterozygous fly lines [3]; Heterozygotes, Female, LD50 over LD50 of para^tsl males",21.5
same,Resistance of heterozygotes,heterozygous fly lines [3]; from Table 8,resistant to deltamethrin and resistance is dominant
Clc1ccc(C(c2ccc(Cl)cc2)C(Cl)(Cl)Cl)cc1 [DDT],Fly Line Preferentially Killed by the Toxin,[2],Canton-S
same,Percent Dead Cantons-S,Canton-S flies; Dose 0.2,11.7%
same,Percent Dead Cantons-S,Canton-S flies; Dose 0.5,8.3%
same,Percent Dead Cantons-S,Canton-S flies; Dose 1,6.7%
same,Percent Dead Cantons-S,Canton-S flies; Dose 2,15.0%
same,Percent Dead Cantons-S,Canton-S flies; Dose 5,35.0%
same,Percent Dead Cantons-S,Canton-S flies; Dose 8,48.3%
same,Percent Dead Cantons-S,Canton-S flies; Dose 10,43.3%
same,Percent Dead Cantons-S,Canton-S flies; Dose 15,75.0%
same,Percent Dead Cantons-S,Canton-S flies; Dose 20,71.7%
same,Percent Dead Para^tsl,para^tsl flies; Dose 0.2,13.3%
same,Percent Dead Para^tsl,para^tsl flies; Dose 0.5,0%
same,Percent Dead Para^tsl,para^tsl flies; Dose 1,0%
same,Percent Dead Para^tsl,para^tsl flies; Dose 2,3.3%
same,Percent Dead Para^tsl,para^tsl flies; Dose 5,6.7%
same,Percent Dead Para^tsl,para^tsl flies; Dose 8,23.3%
same,Percent Dead Para^tsl,para^tsl flies; Dose 10,13.3%
same,Percent Dead Para^tsl,para^tsl flies; Dose 15,8.3%
same,Percent Dead Para^tsl,para^tsl flies; Dose 20,6.7%
same,Resistance of heterozygotes,heterozygous fly lines [4],heterozygotes are resistant to DDT
CC(C)=CC1C(C(=O)OCc2coc(Cc3ccccc3)c2)C1(C)C (stereo not shown) [Resmethrin],Fly Line Preferentially Killed by the Toxin,[2],Para^tsl
CC1(C)C(C=C(Cl)Cl)C1C(=O)OC(C#N)c1ccc(F)c(Oc2ccccc2)c1 (stereo not shown) [Tempo],Fly Line Preferentially Killed by the Toxin,[2],Para^tsl
CC1(C)[C@H](/C=C(\Cl)C(F)(F)F)[C@@H]1C(=O)O[C@@H](C#N)c1cccc(Oc2ccccc2)c1 [PP321],Fly Line Preferentially Killed by the Toxin,[2],Neither
"consensus sequence from the hard randomization, C (MEEWEVLCWTWETCERGEGQ), Z-domain fusion [C-Z]",IC50,TF-FVIIa complex,5.9 ± 0.9 nM
CC(Cc1ccc(C(C)(C)C)cc1)CN1C[C@@H](C)O[C@@H](C)C1 (stereo partly shown) [Fenpropimorph],Resistance Ratio,[1],0.9
same,Resistance Type,[1],Neutral
OC(c1ccc(Cl)cc1)(c1cncnc1)c1ccccc1Cl (stereo not shown) [Ferarimol],Resistance Ratio,[1],0.3
same,Possible Resistance Type,[1],Negative
same,Resistance Type,[1],Negative
C[Si](Cn1cncn1)(c1ccc(F)cc1)c1ccc(F)cc1 [Flusilazole],Resistance Ratio,[1],4.2
same,Resistance Type,[1],Positive
"CC(C)(C)C(O)C(Oc1ccc(Cl)cc1)n1cncn1 (stereo not drawn) [Triadimenol, (1RS,2RS;1RS,2RS)-1-(4chlorophenoxy)-3,3-dimethyl-1-(1H-1,2,4-trizol-1-yl) butan-1-o]",Resistance Ratio,[1],31
C=CCC1=C(C)C(OC(=O)C2C(C=C(C)C)C2(C)C)CC1=O [D-trans allethrin],Fly Line Preferentially Killed by the Toxin,[2],Neither
CC1(C)C(C=C(Cl)Cl)C1C(=O)OCc1cccc(Oc2ccccc2)c1 (stereo not shown) [Permethrin],Fly Line Preferentially Killed by the Toxin,[2],Para^tsl
same,Fly Line Preferentially Killed by the Toxin,[2]; listed as permethrin,more toxic to para^tsl flies than to Canton-S flies
CCCOC/C(=N\c1ccc(Cl)cc1C(F)(F)F)n1ccnc1 [Triflumizole],Resistance Ratio,[1],0.3
same,Possible Resistance Type,[1],Neutral (n.s.)†
same,Resistance Type,[1],Negative
Cc1c(F)c(F)c(COC(=O)[C@H]2[C@@H](/C=C(\Cl)C(F)(F)F)C2(C)C)c(F)c1F [PP993],Fly Line Preferentially Killed by the Toxin,[2],Canton-S
OC(c1ccc(F)cc1)(c1cncnc1)c1ccccc1Cl (stereo not shown) [Nuarimol],Resistance Ratio,[1],0.4
same,Possible Resistance Type,[1],Negative
same,Resistance Type,[1],Negative
CCCN(CCOc1c(Cl)cc(Cl)cc1Cl)C(=O)n1ccnc1 [Prochloraz],Resistance Ratio,[1],3.3
same,Resistance Type,[1],Positive
"AaIT: a protein isolated from Scorpion toxin (protein, UniProt P01497 19-88, looked up) Beta-insect excitatory toxin 1: KKNGYAVDSSGKAPECLLSNYCNNECTKVHYADKGYCCLLSCYCFGLNDDKKVLEISDTRKSYCDTTIIN",NCR in a resistance mutation line,[5],no NCR
